Test: xn = mol fraction of the nth substance listed
Conditions: Gas, Vibrating tube method

S [hydrogen sulfide] + C
Conditions | mass density [kg/m3]
293.23 K, 18686 kPa, x2 = 0.8685 | 200.27
293.23 K, 19770 kPa, x2 = 0.8685 | 210.3
293.23 K, 22173 kPa, x2 = 0.8685 | 230.34
293.23 K, 22860 kPa, x2 = 0.8685 | 235.56
293.27 K, 193 kPa, x2 = 0.8197 | 1.54
293.27 K, 227 kPa, x2 = 0.714 | 1.99
293.27 K, 498 kPa, x2 = 0.8197 | 4.03
293.27 K, 560 kPa, x2 = 0.714 | 4.92
293.27 K, 7261 kPa, x2 = 0.714 | 85.92
293.27 K, 7749 kPa, x2 = 0.714 | 94.83
293.28 K, 1101 kPa, x2 = 0.714 | 9.72
293.28 K, 1547 kPa, x2 = 0.714 | 14.1
293.28 K, 2065 kPa, x2 = 0.714 | 19.16
293.28 K, 8092 kPa, x2 = 0.714 | 103.64
293.29 K, 2976 kPa, x2 = 0.714 | 28.53
293.29 K, 3489 kPa, x2 = 0.714 | 33.95
293.29 K, 8523 kPa, x2 = 0.714 | 108.8
293.29 K, 10516 kPa, x2 = 0.714 | 145.41
293.29 K, 11236 kPa, x2 = 0.714 | 161.66
293.29 K, 13780 kPa, x2 = 0.714 | 213.21
293.29 K, 19219 kPa, x2 = 0.8685 | 205.31
293.29 K, 23988 kPa, x2 = 0.714 | 321.16
293.29 K, 25012 kPa, x2 = 0.714 | 327.5
293.3 K, 2511 kPa, x2 = 0.714 | 23.63
293.3 K, 9149 kPa, x2 = 0.714 | 119.96
293.3 K, 9741 kPa, x2 = 0.714 | 129.36
293.3 K, 11789 kPa, x2 = 0.714 | 174.33
293.3 K, 13528 kPa, x2 = 0.714 | 208.17
293.3 K, 14426 kPa, x2 = 0.714 | 223.09
293.3 K, 15049 kPa, x2 = 0.714 | 233.3
293.3 K, 15503 kPa, x2 = 0.714 | 239.94
293.3 K, 22979 kPa, x2 = 0.714 | 314.55
293.3 K, 23460 kPa, x2 = 0.714 | 317.83
293.3 K, 24512 kPa, x2 = 0.714 | 324.48
293.3 K, 25515 kPa, x2 = 0.714 | 330.43
293.3 K, 25988 kPa, x2 = 0.714 | 333.07
293.31 K, 6513 kPa, x2 = 0.8197 | 63.51
293.31 K, 6885 kPa, x2 = 0.714 | 80.49
293.31 K, 12964 kPa, x2 = 0.714 | 198.31
293.31 K, 14523 kPa, x2 = 0.714 | 224.65
293.31 K, 16108 kPa, x2 = 0.714 | 249.28
293.31 K, 21026 kPa, x2 = 0.714 | 300.53
293.31 K, 22118 kPa, x2 = 0.714 | 308.67
293.31 K, 22512 kPa, x2 = 0.714 | 311.24
293.31 K, 23712 kPa, x2 = 0.714 | 319.93
293.31 K, 26506 kPa, x2 = 0.714 | 335.86
293.32 K, 5019 kPa, x2 = 0.8197 | 46.91
293.32 K, 5508 kPa, x2 = 0.8197 | 52.59
293.32 K, 5943 kPa, x2 = 0.714 | 66.82
293.32 K, 7004 kPa, x2 = 0.8197 | 68.5
293.32 K, 7520 kPa, x2 = 0.8197 | 74.89
293.32 K, 8507 kPa, x2 = 0.8197 | 87.23
293.32 K, 9526 kPa, x2 = 0.8197 | 100.87
293.32 K, 10518 kPa, x2 = 0.8197 | 114.24
293.32 K, 12220 kPa, x2 = 0.714 | 183.56
293.32 K, 12521 kPa, x2 = 0.714 | 189.88
293.32 K, 22053 kPa, x2 = 0.714 | 308.34
293.33 K, 1434 kPa, x2 = 0.8197 | 12.03
293.33 K, 3440 kPa, x2 = 0.8197 | 30.85
293.33 K, 6464 kPa, x2 = 0.714 | 75.29
293.33 K, 8008 kPa, x2 = 0.8197 | 80.89
293.33 K, 9072 kPa, x2 = 0.8197 | 94.8
293.33 K, 10169 kPa, x2 = 0.714 | 136.99
293.33 K, 10922 kPa, x2 = 0.8197 | 121.63
293.33 K, 18012 kPa, x2 = 0.714 | 271.26
293.33 K, 18543 kPa, x2 = 0.714 | 276.99
